Biological target: PD-L1 (Homo sapiens (Human), UniProt Q9NZQ7)
Experiment: PD-1/PD-L1 homogeneous time-resolved fluorescence (HTRF) binding assay
Conditions: Cisbio PD1/PD-L1 binding assay kit
Description: PD-1/PD-L1 homogeneous time-resolved fluorescence (HTRF) detection technology was used to detect the binding ability of the compound to PD-L1.
PD1/PD-L1 binding assay kit (Cisbio, Cat #63ADK000CPDEC) was used, which includes two proteins, Tag 1-PD-L1 and Tag 2-PD-1, and two antibodies, Anti-Tag1-Eu^3+ and Anti-Tag2-XL 665. Assay principle: Anti-tag1-Eu^3+ is the HTRF donor, and Anti-Tag2-XL 665 is the HTRF acceptor. When Tag 1-PD-L1 and Tag 2-PD-1 interact, the added HTRF donor and the acceptor are close to each other. After the donor receives the excitation energy, it transfers part of the energy to the acceptor, thus producing 665 nm emission signal. When the compound is added to block the PD1/PD-L1 interaction, only 620 nm emission light was detected. The inhibitory effect of the compound was determined by analyzing the ratio of 665 nm/620 nm. Tag 1-PD-L1 was diluted with Diluent buffer (cat #62DLBDDF) to a working concentration of 10 nM, Tag 2-PD-1 was diluted with Diluent buffer to a working concentration of 500 nM, and Anti-Tag1-Eu^3+ was diluted with detection buffer (cat #62DB1FDG) by 1:100, Anti-Tag2-XL 665 was diluted with detection buffer by 1:20, and the test compound was diluted with Diluent buffer to a final concentration of 2×. In a 384-well plate, 2 μL of compound was added to each well, and then 4 μL of Tag 1-PD-L1, 4 μL of Tag 2-PD-1 were added and incubated at room temperature for 15 minutes. 5 μL Anti-Tag1-Eu^3+ and 5 μL Anti-Tag2-XL 665 were added and incubated overnight at room temperature, and detected with BioTek Synergy™ Neo2 Multifunctional Microplate Reader to obtain the ratio of 665 nm/620 nm. The IC50 curve was fitted by GraphPad Prism 5.02.

Chain of PD-L1 (Q9NZQ7 19-238): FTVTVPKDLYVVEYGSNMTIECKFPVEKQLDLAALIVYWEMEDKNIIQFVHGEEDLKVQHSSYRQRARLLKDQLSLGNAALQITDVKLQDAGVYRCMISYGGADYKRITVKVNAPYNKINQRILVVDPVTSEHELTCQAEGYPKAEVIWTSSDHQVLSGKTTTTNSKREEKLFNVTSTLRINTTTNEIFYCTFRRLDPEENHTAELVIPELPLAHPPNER

## COc1nc(OCc2cccc(-c3cccc(COc4ccc(CN[C@H](C(=O)O)[C@@H](C)O)c(OC)n4)c3C)c2C)ccc1CN[C@H](C(=O)O)[C@@H](C)O [Compound 51]
  IC50: < 10 nM

## COc1nc(OCc2cccc(-c3cccc(COc4ccc(CN5CCCC[C@H]5C(=O)O)c(OC)n4)c3C)c2C)ccc1CN1CCCC[C@H]1C(=O)O [Compound 26]
  IC50: < 10 nM

## COc1cc(OCc2cccc(-c3cccc(CO)c3C)c2C)cc(OC)c1CNCCNC(C)=O [Compound 10, N-(2-((4-((3′-(hydroxymethyl)-2,2′-dimethyl-[1,1′-biphenyl]-3-yl)methoxy)-2,6-dimethoxybenzyl)amino)ethyl) acetamide]
  IC50: > 1000 nM

## COc1nc(OCc2cccc(-c3cccc(COc4ccc(CN5CC[C@H](NC(C)=O)C5)c(OC)n4)c3C)c2C)ccc1CN1CC[C@H](NC(C)=O)C1 [Compound 54]
  IC50: 10 to 100 nM

## COc1nc(OCc2cccc(-c3cccc(COc4ccc(CN5CC(CC#N)C5)c(OC)n4)c3C)c2C)ccc1CN1CC(CC#N)C1 [Compound 61]
  IC50: 10 to 100 nM

## COc1nc(OCc2cccc(-c3cccc(COc4ccc(CN5C[C@@H](F)C[C@H]5C(=O)O)c(OC)n4)c3Cl)c2Cl)ccc1CN1CCC(C(F)F)C1 (stereo partly drawn) [Compound 81]
  IC50: < 10 nM

## COc1nc(OCc2cccc(-c3cccc(COc4ccc(CN5C[C@@H](O)C[C@H]5C(=O)O)c(OC)n4)c3C#N)c2C)ccc1CN1C[C@@H](O)C[C@H]1C(=O)O [Compound 56]
  IC50: < 10 nM

## COC(=O)[C@@H]1C[C@H](O)CN1Cc1ccc(OCc2cccc(-c3cccc(COc4ccc(CN5C[C@@H](O)C[C@H]5C(=O)OC)c(OC)n4)c3C)c2C)nc1OC [Compound 41]
  IC50: 10 to 100 nM

## COc1nc(OCc2cccc(-c3cccc(COc4ccc(CNCc5nnn[nH]5)c(OC)n4)c3Cl)c2Cl)ccc1CNCc1nnn[nH]1 [Compound 75]
  IC50: < 10 nM

## COc1nc(OCc2cccc(-c3cccc(COc4ccc(CNC5CCOC5=O)c(OC)n4)c3C)c2C)ccc1CNC1CCOC1=O (stereo not drawn) [Compound 64]
  IC50: 10 to 100 nM

## Cc1c(CO)cccc1-c1cccc(COc2cccc(N)n2)c1C [Compound 13, (3′(((6-aminopyridin-2-yl)oxo)methyl)-2,2′-dimethyl-[1,1′-biphenyl]-3-yl) methanol]
  IC50: > 1000 nM

## COc1nc(OCc2cccc(-c3cccc(COc4ccc(CN)c(OC)n4)c3C)c2C)ccc1CN [Compound 6, ((((2,2′-dimethyl-[1,1′-biphenyl)-3,3′-diyl)bis (methylene))bis (oxo))bis (2-methoxypyridine-6,3-diyl)) dimethylamine]
  IC50: 10 to 100 nM

## COc1nc(OCc2sc(C)c(COc3ccc(CNCCNC(C)=O)c(OC)n3)c2C)ccc1CNCCNC(C)=O [Compound 40]
  IC50: > 1000 nM

## COc1nc(OCc2cccc(-c3cccc(COc4ccc(CN5C[C@@H](O)C[C@H]5C(=O)O)c(OC)n4)c3Cl)c2Cl)ccc1CN1C[C@@H](O)C[C@H]1C(=O)O [Compound 46]
  IC50: < 10 nM

## COc1nc(OCc2cccc(-c3cccc(COc4ccc(CN5CC(O)(C(=O)O)C5)c(OC)n4)c3C)c2C)ccc1CN1CC(O)(C(=O)O)C1 [Compound 42]
  IC50: < 10 nM

## COc1nc(OCc2cccc(-c3cccc(COc4ccc(CN5CCC(CC#N)CC5)c(OC)n4)c3C)c2C)ccc1CN1CCC(CC#N)CC1 [Compound 59]
  IC50: 10 to 100 nM

## COc1nc(OCc2cccc(-c3cccc(COc4ccc(CN5C[C@H](O)[C@@H](O)C5)c(OC)n4)c3Cl)c2Cl)ccc1CN1C[C@H](O)[C@@H](O)C1 [Compound 71]
  IC50: < 10 nM

## COc1nc(OCc2cccc(-c3cccc(COc4ccc(CNC5CCCCC5O)c(OC)n4)c3C)c2C)ccc1CNC1CCCCC1O (stereo not drawn) [Compound 24]
  IC50: 10 to 100 nM

## COc1nc(OCc2cccc(-c3cccc(COc4ccc(CN5CCCC(C(N)=O)C5)c(OC)n4)c3C)c2C)ccc1CN1CCCC(C(N)=O)C1 (stereo not drawn) [Compound 53]
  IC50: 100 to 1000 nM

## COc1nc(OCc2cccc(-c3cccc(COc4ccc(CN5CC(NC(C)=O)C5)c(OC)n4)c3Cl)c2Cl)ccc1CN1CC(NC(C)=O)C1 [Compound 74]
  IC50: < 10 nM

## COc1nc(OCc2cccc(-c3cccc(COc4ccc(CN5CCC5C(=O)O)c(OC)n4)c3C)c2C)ccc1CN1CCC1C(=O)O (stereo not drawn) [Compound 35]
  IC50: < 10 nM

Reference: patent US11787766B2, “Compound having PD-L1 inhibitory activity, preparation method therefor and use thereof” (SHANGHAI ENNOVABIO PHARMACEUTICALS CO., LTD., priority 2017, dated 2023)
